Test results reported in article PMC10121968, “Fosgonimeton, a Novel Positive Modulator of the HGF/MET System, Promotes Neurotrophic and Procognitive Effects in Models of Dementia” (Neurotherapeutics, 2022).
Non-standard residues stand in square brackets, D forms with d. Residues, ends and D or L forms follow the SMILES beside them. *: point of attachment. Hexanoyl = CCCCCC(=O)*; Ahx = NCCCCCC(=O)O

Experiments:
MET receptor = target: T1, MET receptor (Homo sapiens, UniProt P08581); experiment: Phosphorylated MET receptor (pMET) ELISA in HEK293 cell lysates; assay type: cell-based; details: HEK293 cells, 1 ng/mL HGF, 0.001–100 nM, 15 min
T1 construct: pMET enzyme-linked immunosorbent assay (ELISA) of human embryonic kidney (HEK293) cell lysates; endogenous in cells; host or cells: HEK293 (ATCC CRL-1573)
T1 sequence (P08581 308-1390 limits assumed): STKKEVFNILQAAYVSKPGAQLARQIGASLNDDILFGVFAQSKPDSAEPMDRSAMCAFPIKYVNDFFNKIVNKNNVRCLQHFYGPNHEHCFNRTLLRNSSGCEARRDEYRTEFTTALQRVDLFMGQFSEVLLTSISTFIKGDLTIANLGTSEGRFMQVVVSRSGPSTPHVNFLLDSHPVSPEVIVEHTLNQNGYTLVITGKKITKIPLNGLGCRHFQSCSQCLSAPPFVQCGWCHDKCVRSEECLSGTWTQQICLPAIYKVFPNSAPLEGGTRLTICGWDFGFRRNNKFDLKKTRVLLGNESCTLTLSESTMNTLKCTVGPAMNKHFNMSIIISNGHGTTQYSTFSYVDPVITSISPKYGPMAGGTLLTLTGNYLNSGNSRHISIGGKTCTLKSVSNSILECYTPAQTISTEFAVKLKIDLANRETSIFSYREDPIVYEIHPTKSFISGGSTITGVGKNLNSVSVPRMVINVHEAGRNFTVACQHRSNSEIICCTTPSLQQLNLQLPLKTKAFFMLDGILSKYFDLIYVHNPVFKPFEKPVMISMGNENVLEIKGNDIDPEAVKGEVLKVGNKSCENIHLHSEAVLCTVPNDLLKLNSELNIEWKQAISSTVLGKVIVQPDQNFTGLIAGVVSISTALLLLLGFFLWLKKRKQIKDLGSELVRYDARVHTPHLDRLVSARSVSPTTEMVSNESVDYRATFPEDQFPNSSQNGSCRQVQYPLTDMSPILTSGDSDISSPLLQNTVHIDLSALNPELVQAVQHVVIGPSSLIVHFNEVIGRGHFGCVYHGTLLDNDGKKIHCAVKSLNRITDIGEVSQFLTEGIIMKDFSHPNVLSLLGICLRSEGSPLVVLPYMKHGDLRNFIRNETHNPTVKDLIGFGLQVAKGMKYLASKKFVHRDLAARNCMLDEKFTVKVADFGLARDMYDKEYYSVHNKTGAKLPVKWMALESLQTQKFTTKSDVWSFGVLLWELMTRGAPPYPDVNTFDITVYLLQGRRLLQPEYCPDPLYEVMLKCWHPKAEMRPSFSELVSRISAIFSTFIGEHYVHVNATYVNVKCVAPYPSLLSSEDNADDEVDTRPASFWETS
T1 sequence (P08581 25-307 limits assumed): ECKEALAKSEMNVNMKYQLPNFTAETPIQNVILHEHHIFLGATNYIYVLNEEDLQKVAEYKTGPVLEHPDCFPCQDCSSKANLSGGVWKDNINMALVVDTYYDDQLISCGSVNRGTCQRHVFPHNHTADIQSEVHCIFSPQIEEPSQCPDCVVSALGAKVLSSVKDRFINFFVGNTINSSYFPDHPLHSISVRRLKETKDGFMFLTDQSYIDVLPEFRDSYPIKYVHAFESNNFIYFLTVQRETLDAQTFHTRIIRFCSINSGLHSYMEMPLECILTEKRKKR
Experimental: Human embryonic kidney (HEK293, ATCC CRL-1573) cells were grown at 37 °C, 5% CO2 in Dulbecco's Modified Eagle Medium (DMEM) + 10% fetal bovine serum (FBS) in T-75 flasks until approximately 90% confluent and then seeded in polystyrene-treated 6-well plates for at least 8 h in serum-free growth media. Recombinant HGF protein (R&D Systems, Minneapolis, Minnesota) with or without experimental small-molecule treatment cocktails (Jubilant Biosys, Uttar Pradesh, India) were prepared in DMEM + 0.1% FBS and added to wells in triplicate for 15 min. Cells were lysed with 180 μL ice-cold RIPA buffer including a phosphatase inhibitor (PhosphataseArrest, G-Biosciences, St. Louis, Missouri) on ice for 15 min and then cleared by centrifugation at 16,000 g. Bicinchoninic acid (BCA) assays of lysates were used to normalize protein concentration across samples. Phosphorylated MET receptor (pMET) enzyme-linked immunosorbent assay (ELISA) kit processing was carried out according to the manufacturer’s instructions (Phospho-MET [Tyr1234/1235] Sandwich ELISA Kit, CST #7227C, Cell Signaling Technology, Danvers, Massachusetts). Raw absorbance signals were scaled between subthreshold (1 ng/mL HGF) and saturating (10 ng/mL HGF) controls such that HGF 1 ng/mL = 1 and HGF 10 ng/mL = 10. The statistical difference from subthreshold control was determined by Student’s t-test. […]

IL-1β = IL-1β release in LPS-challenged THP-1 macrophages (HTRF); assay type: cell-based, human; details: 1 µM, 20 min pretreatment, LPS 50 ng/mL 24 h, vs LPS + vehicle
Experimental: (§1) To determine the effect of fosgo-AM on LPS-induced cytokine release, we sought to determine the levels of interleukin-1β (IL-1β), interleukin-6 (IL-6), and tumor necrosis factor-α (TNF-α) in LPS-challenged THP-1–differentiated macrophages in the presence and absence of fosgo-AM. THP-1 monocytes were grown at 37 °C, 5% CO2 in Roswell Park Memorial Institute (RPMI) medium + 10% FBS until approximately 80% confluent. Cells were seeded in polystyrene-treated 96-well cell culture plates at approximately 50,000 cells/well in 100-µL complete media. 100 µL Phorbol myristate acetate was then added to each well for a final concentration of 100 ng/mL. The plate was then incubated for 3 days at 37 °C, 5% CO2 to prime the monocytes into macrophages. […] For cytokine quantification, cell culture supernatant was assayed by HTRF kits to assess levels of IL-1β (Human IL-1β kit, #62HIL1BPEG, Cisbio, Codolet, France) and IL-6 (Human IL-6 kit, 62HIL06PET, Cisbio, Codolet, France), and by ELISA (Human TNF-α ELISA kit, KHC3011, ThermoFisher, Waltham, Massachusetts) to determine the levels of TNF-α. […] Fluorescence emission at 2 different wavelengths (665 nm and 620 nm) were measured on an Envision plate reader (PerkinElmer, Waltham, Massachusetts), and HTRF ratio of the acceptor and donor emission signals for each well was calculated as follows: HTRF ratio = (665 nm/620 nm) × 10,000. […]

[1] = Simulated intestinal and gastric fluid stability; assay type: in vitro ADME; details: 1 h, 5 µM, 37 °C
Experimental: Simulated intestinal and gastric fluid studies were contracted to Quintara Discovery Inc, Hayward, California. Simulated intestinal fluid was freshly prepared with 8.7 mM NaOH, 28.65 mM NaH2PO4, 5.85 mM NaCl, with a final pH of 6.8. […] was added to a final concentration of 0.32%. Simulated gastric fluid was prepared with 34.2 mM NaCl. The pH was adjusted to 1.2, and […] was added to a final concentration of 1%. Fosgo-AM was added to the simulated fluids to achieve a concentration of 5 µM. After mixing, samples were transferred to 96-well plates in duplicate (25 μL/well) and incubated at 37 °C. At time 0, 1, 2, and 4 h, 150 μL quench solution (100% acetonitrile with 0.1% formic acid) and bucetin internal standard was added to the appropriate wells. Plates were sealed and centrifuged at 4 °C for 15 min at 4000 rpm. The supernatant was transferred to fresh plates for liquid chromatography/[…] mass spectrometry (LC/MS/MS) analysis. The extent of metabolism was calculated as the disappearance of the test compound compared with the time = 0 incubations.

Oral bioavailability = details: in vivo
TNF-α = TNF-α release in LPS-challenged THP-1 macrophages (ELISA); assay type: cell-based, human; details: 1 µM, 20 min pretreatment, LPS 50 ng/mL 24 h, vs LPS + vehicle
Experimental: as §1

- remaining after exposure ([1]; simulated gastric fluid): 7.8%
- remaining after exposure ([1]; simulated intestinal fluid): 0.1%
- oral bioavailability (Oral bioavailability): poor oral bioavailability
SMILES: CCCCCC(=O)N[C@@H](Cc1ccc(O)cc1)C(=O)N[C@H](C(=O)NCCCCCC(N)=O)[C@@H](C)CC [fosgo-AM] (Hexanoyl-Tyr-Ile-[Ahx]-NH2)
- enhancement of pMET levels in the presence of low HGF (MET receptor): most potent positive modulator of HGF/MET
- IL-1β release (IL-1β): significant decrease
- TNF-α release (TNF-α): significant decrease
